How the values were obtained:
[1] = biological target: T1, Cytochrome P450 1A2 (Homo sapiens, UniProt P05177); conditions: bti-tn-5b1-4; further: in other assays of this panel Not Active means under 50% inhibition at 10 µM
T1 sequence (P05177 whole entry): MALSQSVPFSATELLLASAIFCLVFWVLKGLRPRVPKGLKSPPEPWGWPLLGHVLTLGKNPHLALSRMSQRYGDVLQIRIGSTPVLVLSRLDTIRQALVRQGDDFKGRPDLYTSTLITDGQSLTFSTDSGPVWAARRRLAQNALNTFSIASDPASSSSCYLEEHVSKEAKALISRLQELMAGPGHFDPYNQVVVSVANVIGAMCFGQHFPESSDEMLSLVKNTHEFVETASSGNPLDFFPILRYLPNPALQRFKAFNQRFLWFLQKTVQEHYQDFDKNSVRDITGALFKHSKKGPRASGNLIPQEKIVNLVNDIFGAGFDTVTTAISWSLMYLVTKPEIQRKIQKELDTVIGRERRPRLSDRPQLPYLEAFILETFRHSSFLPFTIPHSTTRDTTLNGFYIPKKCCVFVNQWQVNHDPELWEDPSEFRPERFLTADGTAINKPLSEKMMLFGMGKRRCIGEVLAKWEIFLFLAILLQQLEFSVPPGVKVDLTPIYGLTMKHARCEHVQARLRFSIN

[2] = biological target: Mu-type opioid receptor (Homo sapiens, UniProt P35372); test: DRUGMATRIX: Opiate mu (OP3, MOP) radioligand binding (ligand: [3H] Diprenorphine); assay type: cell membranes, CHO-K1, Membrane; conditions: cho-k1; Not Active = under 50% inhibition at 10 µM
[3] = biological target: T2, Polyunsaturated fatty acid lipoxygenase ALOX15 (Oryctolagus cuniculus, UniProt P12530); test: biochemical; assay type: tissue-based, Reticulocytes;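 further: inhibition of 15-lipoxygenase enzyme activity measured with linoleic acid as the substrate; in other assays of this panel Not Active means under 50% inhibition at 10 µM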
T2 sequence (P12530 whole entry): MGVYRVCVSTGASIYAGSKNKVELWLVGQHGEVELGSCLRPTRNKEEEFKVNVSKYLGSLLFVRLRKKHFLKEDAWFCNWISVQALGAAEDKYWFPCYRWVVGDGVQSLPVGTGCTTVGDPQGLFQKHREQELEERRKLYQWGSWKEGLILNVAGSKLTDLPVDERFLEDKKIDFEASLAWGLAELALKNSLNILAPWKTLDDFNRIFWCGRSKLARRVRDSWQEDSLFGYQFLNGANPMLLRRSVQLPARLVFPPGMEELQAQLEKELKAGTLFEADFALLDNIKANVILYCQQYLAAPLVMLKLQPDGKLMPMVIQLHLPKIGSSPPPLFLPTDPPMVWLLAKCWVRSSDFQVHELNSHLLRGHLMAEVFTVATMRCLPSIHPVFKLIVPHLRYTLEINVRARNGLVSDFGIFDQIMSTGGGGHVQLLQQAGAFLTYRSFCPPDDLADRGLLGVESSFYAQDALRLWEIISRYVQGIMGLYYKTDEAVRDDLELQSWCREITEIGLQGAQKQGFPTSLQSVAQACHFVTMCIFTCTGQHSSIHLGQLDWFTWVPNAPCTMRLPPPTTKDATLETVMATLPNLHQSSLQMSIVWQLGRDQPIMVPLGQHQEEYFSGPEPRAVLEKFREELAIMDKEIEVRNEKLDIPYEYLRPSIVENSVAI

[4] = biological target: Tyrosine-protein kinase Lck (Homo sapiens, UniProt P06239); test: DRUGMATRIX: Protein Tyrosine Kinase, LCK enzyme inhibition (substrate: Poly(Glu:Tyr)); assay type: cell-based, Insect cells; conditions: insect cells; Not Active = under 50% inhibition at 10 µM
[5] = biological target: T3, Nitric oxide synthase, inducible (Mus musculus, UniProt P29477); parameters: species or system Escherichia coli;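 further: inhibition of iNOS enzyme activity measured with L-arginine as substrate; in other assays of this panel Not Active means under 50% inhibition at 10 µM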
T3 sequence (P29477 whole entry): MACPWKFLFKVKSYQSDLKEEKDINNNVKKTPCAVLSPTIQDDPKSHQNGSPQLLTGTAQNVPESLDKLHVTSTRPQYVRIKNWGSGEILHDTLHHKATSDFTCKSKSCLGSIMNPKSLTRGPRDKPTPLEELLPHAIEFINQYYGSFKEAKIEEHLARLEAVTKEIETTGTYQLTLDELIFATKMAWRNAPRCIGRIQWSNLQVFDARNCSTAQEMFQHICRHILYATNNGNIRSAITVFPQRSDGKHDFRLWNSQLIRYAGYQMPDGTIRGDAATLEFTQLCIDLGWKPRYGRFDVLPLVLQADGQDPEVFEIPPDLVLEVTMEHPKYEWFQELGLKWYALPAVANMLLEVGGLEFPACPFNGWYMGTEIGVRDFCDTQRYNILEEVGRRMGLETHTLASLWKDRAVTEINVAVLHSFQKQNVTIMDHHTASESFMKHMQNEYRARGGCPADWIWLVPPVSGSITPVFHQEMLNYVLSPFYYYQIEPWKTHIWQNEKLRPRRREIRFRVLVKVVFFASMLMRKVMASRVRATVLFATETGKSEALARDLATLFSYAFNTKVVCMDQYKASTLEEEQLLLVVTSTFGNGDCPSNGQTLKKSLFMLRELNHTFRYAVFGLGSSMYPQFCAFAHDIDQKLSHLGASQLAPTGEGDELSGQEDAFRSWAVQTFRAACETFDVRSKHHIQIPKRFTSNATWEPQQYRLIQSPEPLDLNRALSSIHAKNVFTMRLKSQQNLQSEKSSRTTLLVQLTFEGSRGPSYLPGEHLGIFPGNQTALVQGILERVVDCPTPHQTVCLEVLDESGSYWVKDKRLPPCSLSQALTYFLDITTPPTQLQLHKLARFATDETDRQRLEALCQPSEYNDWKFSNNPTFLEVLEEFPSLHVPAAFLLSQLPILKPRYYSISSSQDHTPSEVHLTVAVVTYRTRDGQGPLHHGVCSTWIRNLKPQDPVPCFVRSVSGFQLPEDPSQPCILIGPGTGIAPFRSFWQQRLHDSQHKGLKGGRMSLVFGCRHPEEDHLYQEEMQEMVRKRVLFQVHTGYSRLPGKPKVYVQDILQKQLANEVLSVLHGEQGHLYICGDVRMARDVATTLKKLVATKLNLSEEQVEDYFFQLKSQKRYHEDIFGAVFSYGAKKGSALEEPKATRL

[6] = biological target: Cytochrome P450 2C19 (Homo sapiens, UniProt P33261); conditions: bti-tn-5b1-4; further: in other assays of this panel Not Active means under 50% inhibition at 10 µM
Sequence of Cytochrome P450 2C19 (P33261 whole entry): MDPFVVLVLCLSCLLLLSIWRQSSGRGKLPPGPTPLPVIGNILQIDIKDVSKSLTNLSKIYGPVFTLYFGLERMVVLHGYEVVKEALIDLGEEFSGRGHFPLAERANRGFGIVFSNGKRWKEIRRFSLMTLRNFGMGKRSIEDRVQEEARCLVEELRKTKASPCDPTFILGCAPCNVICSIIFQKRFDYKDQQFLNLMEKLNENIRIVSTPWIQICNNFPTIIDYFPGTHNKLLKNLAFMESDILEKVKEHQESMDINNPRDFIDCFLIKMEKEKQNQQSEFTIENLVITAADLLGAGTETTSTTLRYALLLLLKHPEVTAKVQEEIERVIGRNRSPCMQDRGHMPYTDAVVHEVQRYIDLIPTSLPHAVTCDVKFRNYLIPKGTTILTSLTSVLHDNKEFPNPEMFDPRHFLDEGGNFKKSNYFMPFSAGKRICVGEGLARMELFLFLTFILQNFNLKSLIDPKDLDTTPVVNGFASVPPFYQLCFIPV

Sequence of Mu-type opioid receptor (P35372 whole entry): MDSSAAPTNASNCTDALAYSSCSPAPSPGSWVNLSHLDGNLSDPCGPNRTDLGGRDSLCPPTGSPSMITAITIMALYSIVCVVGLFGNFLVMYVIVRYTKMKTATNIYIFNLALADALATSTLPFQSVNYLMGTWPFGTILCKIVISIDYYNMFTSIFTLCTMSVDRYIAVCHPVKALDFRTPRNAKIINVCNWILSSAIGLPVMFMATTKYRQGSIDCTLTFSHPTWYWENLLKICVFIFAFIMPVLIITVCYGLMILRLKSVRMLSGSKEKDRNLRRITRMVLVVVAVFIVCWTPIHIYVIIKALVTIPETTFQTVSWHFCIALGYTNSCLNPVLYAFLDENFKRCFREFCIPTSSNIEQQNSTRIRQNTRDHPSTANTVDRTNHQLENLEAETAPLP
Sequence of Tyrosine-protein kinase Lck (P06239 whole entry): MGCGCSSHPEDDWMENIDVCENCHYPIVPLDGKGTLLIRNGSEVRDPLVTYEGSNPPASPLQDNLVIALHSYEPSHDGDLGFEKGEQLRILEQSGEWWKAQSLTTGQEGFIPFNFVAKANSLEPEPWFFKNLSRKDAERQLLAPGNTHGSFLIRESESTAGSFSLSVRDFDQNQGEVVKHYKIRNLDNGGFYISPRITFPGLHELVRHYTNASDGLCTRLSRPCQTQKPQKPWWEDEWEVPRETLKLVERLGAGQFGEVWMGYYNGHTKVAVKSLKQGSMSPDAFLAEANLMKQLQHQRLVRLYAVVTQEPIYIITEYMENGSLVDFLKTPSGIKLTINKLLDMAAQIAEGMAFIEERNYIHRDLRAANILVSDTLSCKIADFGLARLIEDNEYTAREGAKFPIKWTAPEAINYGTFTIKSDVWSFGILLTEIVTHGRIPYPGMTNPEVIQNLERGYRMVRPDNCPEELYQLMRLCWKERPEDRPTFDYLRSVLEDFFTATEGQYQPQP

Row | SMILES | IC50 [1] | Ki [1] | IC50 [2] | IC50 ([3]; reticulocytes) | IC50 [4] | IC50 [5] | IC50 [6] | Ki [6] | IC50 ([3]; read-out: IC50) [µM]
1 | O=C(O)P(=O)(O)O [FOSCARNET] | Not Active | Not Active | Not Active | Not Active | Not Active | Not Active | Not Active | Not Active | 
2 | Cc1ccc(C)c(OCCCC(C)(C)C(=O)O)c1 [GEMFIBROZIL] | Not Active | Not Active | Not Active | Not Active | Not Active | Not Active | Not Active | Not Active | 
3 | O=c1c(-c2ccc(O)cc2)coc2cc(O)cc(O)c12 [GENISTEIN] | Not Active | Not Active | Not Active |  | Not Active | Not Active | Not Active | Not Active | 9.03
4 | CCC1=C(C)CN(C(=O)NCCc2ccc(S(=O)(=O)NC(=O)N[C@H]3CC[C@H](C)CC3)cc2)C1=O [GLIMEPIRIDE] | Not Active | Not Active | Not Active | Not Active | Not Active | Not Active | Not Active | Not Active | 
5 | Nc1cc(-c2ccncc2)c[nH]c1=O [INAMRINONE] | Not Active | Not Active | Not Active | Not Active | Not Active | Not Active | Not Active | Not Active | 
6 | CCCCC1=NC2(CCCC2)C(=O)N1Cc1ccc(-c2ccccc2-c2nnn[nH]2)cc1 [IRBESARTAN] | Not Active | Not Active | Not Active | Not Active | Not Active | Not Active | Not Active | Not Active | 
7 | CN1CCC(=C2c3ccccc3CC(=O)c3sccc32)CC1 [KETOTIFEN] | Not Active | Not Active | Not Active | Not Active | Not Active | Not Active | Not Active | Not Active | 
8 | C[N+](C)(C)C[C@H](O)CC(=O)[O-] [LEVOCARNITINE] | Not Active | Not Active | Not Active | Not Active | Not Active | Not Active | Not Active | Not Active | 
9 | C[C@H]1COc2c(N3CCN(C)CC3)c(F)cc3c(=O)c(C(=O)O)cn1c23.C[C@H]1COc2c(N3CCN(C)CC3)c(F)cc3c(=O)c(C(=O)O)cn1c23.O [LEVOFLOXACIN] | Not Active | Not Active | Not Active | Not Active | Not Active | Not Active | Not Active | Not Active | 
10 | CCn1cc(C(=O)O)c(=O)c2cc(F)c(N3CCNC(C)C3)c(F)c21 (stereo unspecified) [LOMEFLOXACIN] | Not Active | Not Active | Not Active | Not Active | Not Active | Not Active | Not Active | Not Active | 
11 | CN1CCCC(CN2c3ccccc3Sc3ccccc32)C1 (stereo unspecified) [MEPAZINE] | Not Active | Not Active | Not Active | Not Active | Not Active | Not Active | Not Active | Not Active | 
12 | Cc1cccc(C)c1NC(=O)C1CCCCN1C (stereo unspecified) [MEPIVACAINE] | Not Active | Not Active | Not Active | Not Active | Not Active | Not Active | Not Active | Not Active | 
13 | CN(C)C(=O)Oc1cccc([N+](C)(C)C)c1.[Br-] [NEOSTIGMINE BROMIDE] | Not Active | Not Active | Not Active | Not Active | Not Active | Not Active | Not Active | Not Active | 
14 | NC(=O)c1cccnc1 [NIACINAMIDE] | Not Active | Not Active | Not Active | Not Active | Not Active | Not Active | Not Active | Not Active | 
15 | CS(=O)(=O)Nc1ccc([N+](=O)[O-])cc1Oc1ccccc1 [NIMESULIDE] | Not Active | Not Active | Not Active | Not Active | Not Active | Not Active | Not Active | Not Active | 
16 | CN1C(=O)CN=C(c2ccccc2)c2cc([N+](=O)[O-])ccc21 [NIMETAZEPAM] | Not Active | Not Active | Not Active | Not Active | Not Active | Not Active | Not Active | Not Active | 
17 | NC(=O)N1c2ccccc2CC(=O)c2ccccc21 [OXCARBAZEPINE] | Not Active | Not Active | Not Active | Not Active | Not Active | Not Active | Not Active | Not Active | 
18 | COc1ccnc(C[S+]([O-])c2nc3ccc(OC(F)F)cc3[nH]2)c1OC (stereo unspecified) [PANTOPRAZOLE] | Not Active | Not Active | Not Active | Not Active | Not Active | Not Active | Not Active | Not Active | 
19 | N=C(N)c1ccc(OCCCCCOc2ccc(C(=N)N)cc2)cc1 [PENTAMIDINE] | Not Active | Not Active | Not Active | Not Active | Not Active | Not Active | Not Active | Not Active | 
20 | CCc1ccc(CCOc2ccc(CC3SC(=O)NC3=O)cc2)nc1 (stereo unspecified) [PIOGLITAZONE] | Not Active | Not Active | Not Active | Not Active | Not Active | Not Active | Not Active | Not Active | 
21 | CCCNC(C)C(=O)Nc1ccccc1C (stereo unspecified) [PRILOCAINE] | Not Active | Not Active | Not Active | Not Active | Not Active | Not Active | Not Active | Not Active | 
22 | CCN(CC)CCCC(C)Nc1c2ccc(Cl)cc2nc2ccc(OC)cc12 (stereo unspecified) [QUINACRINE] | Not Active | Not Active | Not Active | Not Active | Not Active | Not Active | Not Active | Not Active | 
